Measured values reported in patent publication US12630534B2 (TAKEDA PHARMACEUTICAL COMPANY LIMITED, priority 2020, dated 2026).

Molecular target: T1, human GPR139 (Homo sapiens, UniProt Q6DWJ6)
T1 construct: expressed in transfected cells; host or cells: CHO-TREx (Life Technologies) cells, expression induced with doxycycline
T1 sequence (Q6DWJ6 1-353): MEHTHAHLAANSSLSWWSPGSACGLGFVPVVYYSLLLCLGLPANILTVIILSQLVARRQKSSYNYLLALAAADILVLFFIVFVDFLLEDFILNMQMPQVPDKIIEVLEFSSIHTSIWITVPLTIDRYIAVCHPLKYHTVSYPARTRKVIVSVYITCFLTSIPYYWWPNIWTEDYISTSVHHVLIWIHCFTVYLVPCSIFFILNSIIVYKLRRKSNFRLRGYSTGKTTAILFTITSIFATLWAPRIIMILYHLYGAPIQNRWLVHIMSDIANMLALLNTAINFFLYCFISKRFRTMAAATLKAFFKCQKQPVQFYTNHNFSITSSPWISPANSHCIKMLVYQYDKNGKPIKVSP
Test: Inhibition rate of the amount of IP1 in GPR139-expressed CHO cells (inverse agonist assay, Test Example 2)
Assay type: cell-based
Details: CHO, relative value, inhibition rate of Example Compound 2 in Test Example 1 defined as 100%
Protocol: The measurement of IP1 was made using an IP-ONE HTFR assay kit (cis-bio) and CHO-TREx (Life Technologies) cells stably transfected with GPR139. The CHO-TREx cells expressed human GPR139 with a tetracycline-inducing element. The cells were cultured in a medium containing F12K and 10% tetracycline-free FBS, and the expression of human GPR139 was induced over the course of 17 hours under conditions of 37° C. and 5% CO2 in the presence of 2 μg/mL of doxycycline (Clontech, 631311) in the growth medium on the day before assay. On the day of the test, after the cells were washed with 10 mL of PBS, the cells were detached with TrypLE Express (Life Technologies) and centrifuged at 1,000 rpm to form pellets, and a cell suspension was then prepared using a stimulation buffer (cis-bio, included in the IP-ONE HTRF assay kit).
The compound was diluted with the stimulation buffer, and 4 μL was added to a 384-well white assay plate (Greiner). The cell suspension was added so that there were 2000 cells per well, and the assay plate was left to stand for 40 minutes at 37° C. Equal amounts of IP1-d2 and Ab-Crp solutions (both available from cis-bio, included in the IP-ONE HTRF assay kit) prepared with a lysis buffer (cis-bio, included in the IP-ONE HTRF assay kit) were mixed, and 4 μL was added to the assay plate and left to stand for one hour at room temperature. After the fluorescence strengths of two wavelengths were measured by the HTRF settings of Envision (PerkinElmer), the value of Ratio={(Signal 665 nm)/(Signal 615 nm)}×10000 was calculated.
Measurement of the Inhibition Rate of the Amount of IP1 in GPR139-Expressed CHO Cells (Inverse Agonist Assay)
The activities of the compounds of Examples 1 and 3 to 167 were expressed as relative values in Table 2 by measuring the inhibition rate of the amount of IP1 with the same method as in Test Example 1 and defining the inhibition rate of the amount of IP1 of Example Compound 2 in Test Example 1 as […].

inhibition at 30 µM [%]	Structure (SMILES)
99	CC(C)n1cc(Cn2ccn(-c3nc(N4CCO[C@H](C)C4)cc(C(F)(F)F)c3F)c2=O)cn1 [Example 75, 1-{3-fluoro-6-[(2R)-2-methylmorpholin-4-yl]-4-(trifluoromethyl)pyridin-2-yl}-3-{[1-(propan-2-yl)-1H-pyrazol-4-yl]methyl}-1,3-dihydro-2H-imidazol-2-one]
99	CC(C)n1cc(Cn2ccn(-c3nc(NCC4(F)CCC4)cc(C(F)(F)F)c3F)c2=O)cn1 [Example 133, 1-[3-fluoro-6-{[(1-fluorocyclobutyl)methyl]amino}-4-(trifluoromethyl)pyridin-2-yl]-3-{[1-(propan-2-yl)-1H-pyrazol-4-yl]methyl}-1,3-dihydro-2H-imidazol-2-one]
98	Cc1cn(-c2cc(N3CCOC(C)(C)C3)cc(C(F)F)c2F)c(=O)n1Cc1cnn(C(C)C)c1 [Example 79, 1-[3-(difluoromethyl)-5-(2,2-dimethylmorpholin-4-yl)-2-fluorophenyl]-4-methyl-3-{[1-(propan-2-yl)-1H-pyrazol-4-yl]methyl}-1,3-dihydro-2H-imidazol-2-one]
100	CCn1cc(Cn2c(C)cn(-c3cc(OC4CCOCC4)cc(C(F)(F)F)c3F)c2=O)cn1 [Example 117, 3-[(1-ethyl-1H-pyrazol-4-yl)methyl]-1-{2-fluoro-5-[(oxan-4-yl)oxy]-3-(trifluoromethyl)phenyl}-4-methyl-1,3-dihydro-2H-imidazol-2-one]
101	CCn1cc(Cn2c(C)c(C)n(-c3cc(C(F)(F)F)c(F)c(N4CCO[C@H](C)C4)n3)c2=O)cn1 [Example 150, 1-[(1-ethyl-1H-pyrazol-4-yl)methyl]-3-{5-fluoro-6-[(2R)-2-methylmorpholin-4-yl]-4-(trifluoromethyl)pyridin-2-yl}-4,5-dimethyl-1,3-dihydro-2H-imidazol-2-one]
98	C=Cc1cc(N2CCO[C@H](C)C2)cc(-n2ccn(Cc3cnn(CC)c3)c2=O)c1F [Example 74, 1-{3-ethenyl-2-fluoro-5-[(2R)-2-methylmorpholin-4-yl]phenyl}-3-[(1-ethyl-1H-pyrazol-4-yl)methyl]-1,3-dihydro-2H-imidazol-2-one]
98	CCn1cc(Cn2ccn(-c3cc(N4CCC(F)(F)CC4)cc(C4CC4(F)F)c3F)c2=O)cn1 (centres unmarked) [Example 156, 1-[3-(2,2-difluorocyclopropyl)-5-(4,4-difluoropiperidin-1-yl)-2-fluorophenyl]-3-[(1-ethyl-1H-pyrazol-4-yl)methyl]-1,3-dihydro-2H-imidazol-2-one]
97	Cc1c(C)n(-c2cc(C(F)F)cc(N(C)C3CCOCC3)c2)c(=O)n1Cc1cnn(C(C)C)c1 [Example 76, 1-{3-(difluoromethyl)-5-[methyl(oxan-4-yl)amino]phenyl}-4,5-dimethyl-3-{[1-(propan-2-yl)-1H-pyrazol-4-yl]methyl}-1,3-dihydro-2H-imidazol-2-one]
99	Cc1nn(-c2cc(N(C)C3CCOCC3)cc(C(F)(F)F)c2F)c(=O)n1Cc1cnn(C(C)C)c1 [Example 92, 2-{2-fluoro-5-[methyl(oxan-4-yl)amino]-3-(trifluoromethyl)phenyl}-5-methyl-4-{[1-(propan-2-yl)-1H-pyrazol-4-yl]methyl}-2,4-dihydro-3H-1,2,4-triazol-3-one]
98	CCn1cc(Cn2cc(C)n(-c3cc(OCC4CC(F)(F)C4)cc(C(F)F)c3)c2=O)cn1 [Example 68, 3-{3-[(3,3-difluorocyclobutyl)methoxy]-5-(difluoromethyl)phenyl}-1-[(1-ethyl-1H-pyrazol-4-yl)methyl]-4-methyl-1,3-dihydro-2H-imidazol-2-one]
102	CCn1cc(C(C)n2ccn(-c3cc(N4CCO[C@H](C)C4)cc(C(F)(F)F)c3F)c2=O)cn1 (stereo partly drawn) [Example 9, 1-[1-(1-ethyl-1H-pyrazol-4-yl)ethyl]-3-{2-fluoro-5-[(2R)-2-methylmorpholin-4-yl]-3-(trifluoromethyl)phenyl}-1,3-dihydro-2H-imidazol-2-one]
100	CCn1cc(Cn2ccn(-c3nc(N4CCO[C@H](C)C4)cc(C(F)(F)F)c3F)c2=O)cn1 [Example 26, 1-[(1-ethyl-1H-pyrazol-4-yl)methyl]-3-{3-fluoro-6-[(2R)-2-methylmorpholin-4-yl]-4-(trifluoromethyl)pyridin-2-yl}-1,3-dihydro-2H-imidazol-2-one]
100	Cc1nn(-c2cc(N3CCO[C@H](C)C3)cc(C(F)(F)F)c2F)c(=O)n1Cc1cnn(C(C)C)c1 [Example 91, 2-{2-fluoro-5-[(2R)-2-methylmorpholine-4-yl]-3-(trifluoromethyl)phenyl}-5-methyl-4-{[1-(propane-2-yl)-1H-pyrazole-4-yl]methyl}-2,4-dihydro-3H-1,2,4-triazole-3-one]
103	CCn1cc(Cn2c(C)c(C)n(-c3cc(C(F)(F)F)cc(OC[C@@H]4CCCO4)n3)c2=O)cn1 [Example 115, 1-[(1-ethyl-1H-pyrazol-4-yl)methyl]-4,5-dimethyl-3-[6-{[(2S)-oxolan-2-yl]methoxy}-4-(trifluoromethyl)pyridin-2-yl]-1,3-dihydro-2H-imidazol-2-one]
100	Cc1nn(-c2cc(C(F)(F)F)cc(N3CCC(F)(F)CC3)n2)c(=O)n1Cc1cnn(C(C)C)c1 [Example 142, 2-[6-(4,4-difluoropiperidin-1-yl)-4-(trifluoromethyl)pyridin-2-yl]-5-methyl-4-{[1-(propan-2-yl)-1H-pyrazol-4-yl]methyl}-2,4-dihydro-3H-1,2,4-triazol-3-one]
99	CCn1cc(Cn2cc(C)n(-c3cc(N4CCOC(C)(C)C4)cc(C(F)(F)F)c3)c2=O)cn1 [Example 29, 3-[3-(2,2-dimethylmorpholin-4-yl)-5-(trifluoromethyl)phenyl]-1-[(1-ethyl-1H-pyrazol-4-yl)methyl]-4-methyl-1,3-dihydro-2H-imidazol-2-one]
99	CCn1cc(Cn2cc(C)n(-c3cc(N4CCO[C@H](C)C4)cc(C(F)(F)F)c3)c2=O)cn1 [Example 14, 1-[(1-ethyl-1H-pyrazol-4-yl)methyl]-4-methyl-3-{3-[(2R)-2-methylmorpholin-4-yl]-5-(trifluoromethyl)phenyl}-1,3-dihydro-2H-imidazol-2-one]
97	CCn1cc(Cn2c(C)cn(-c3cc(N4CCOC(C)(C)C4)cc(C4CC4)c3F)c2=O)cn1 [Example 164, 1-[3-cyclopropyl-5-(2,2-dimethylmorpholin-4-yl)-2-fluorophenyl]-3-[(1-ethyl-1H-pyrazol-4-yl)methyl]-4-methyl-1,3-dihydro-2H-imidazol-2-one]
100	CCn1cc(Cn2cc(C)n(-c3cc(N4CCC(F)(F)C4)cc(C(F)(F)F)c3)c2=O)cn1 [Example 24, 3-[3-(3,3-difluoropyrrolidin-1-yl)-5-(trifluoromethyl)phenyl]-1-[(1-ethyl-1H-pyrazol-4-yl)methyl]-4-methyl-1,3-dihydro-2H-imidazol-2-one]
98	CCn1cc(Cn2cc(C)n(-c3cc(OCC4CC(F)(F)C4)cc(C4CC4)c3)c2=O)cn1 [Example 67, 3-{3-cyclopropyl-5-[(3,3-difluorocyclobutyl)methoxy]phenyl}-1-[(1-ethyl-1H-pyrazol-4-yl)methyl]-4-methyl-1,3-dihydro-2H-imidazol-2-one]
101	CCn1cc(Cn2c(C)cn(-c3cc(N(C)C4CCOCC4)cc(C(F)(F)F)c3F)c2=O)cn1 [Example 53, 3-[(1-ethyl-1H-pyrazol-4-yl)methyl]-1-{2-fluoro-5-[methyl(oxan-4-yl)amino]-3-(trifluoromethyl)phenyl}-4-methyl-1,3-dihydro-2H-imidazol-2-one]
100	CCn1cc(Cn2ccn(-c3nc(N4CCOC(C)(C)C4)cc(C(F)(F)F)c3F)c2=O)cn1 [Example 112, 1-[6-(2,2-dimethylmorpholin-4-yl)-3-fluoro-4-(trifluoromethyl)pyridin-2-yl]-3-[(1-ethyl-1H-pyrazol-4-yl)methyl]-1,3-dihydro-2H-imidazol-2-one]
105	CC(C)n1cc(Cn2ccn(-c3cc(C(F)(F)F)cc(N4CCO[C@H](C)C4)n3)c2=O)cn1 [Example 102, 1-{6-[(2R)-2-methylmorpholin-4-yl]-4-(trifluoromethyl)pyridin-2-yl}-3-{[1-(propan-2-yl)-1H-pyrazol-4-yl]methyl}-1,3-dihydro-2H-imidazol-2-one]
